From PubChem BioAssay (NCI) come the findings set out here.

Among the test systems are SK-OV-3 ovarian; NCI-H23 lung; IGROV1 ovarian; MDA-MB-435; HCC-2998 colon; HL-60(TB) leukemia; SNB-75 CNS; HOP-62 NSCLC; NCI-H522 lung; RXF 393 renal.
Assay in all cases: growth of human tumour cells (NCI), 48 h

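Growth conditions: 96-well plates. Treatment: test compound, 48 hours, 5 concentrations. Analysis: linear interpolation between bracketing concentrations; unreached endpoints set to highest concentration. The concentration for 50% growth inhibition is given as GI50. TGI is the concentration that stops growth completely.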 Where a SMILES comes first, the peptide text is derived from it. The star is where a group is joined. Cbz = O=C(OCc1ccccc1)*; OBn = c1ccc(CO*)cc1 A value given as a limit tells only on which side of the number the result lay.

For the compound `COC(=O)N1C[C@@]2(C=CC3(CC2)OCCO3)c2ccccc21`, the TGI in the assay on SK-OV-3 ovarian was more than 100 µM; in the assay on NCI-H23 lung, more than 100 µM; in the assay with IGROV1 ovarian, more than 100 µM; in the assay with MDA-MB-435, 74.5 µM; in the assay on HCC-2998 colon it was more than 100 µM; in the assay on HL-60(TB) leukemia it was 58.4 µM. Further, the TGI with SNB-75 CNS and in the assay with HOP-62 NSCLC was more than 100 µM in each case.

Take `C=C1C(=O)C([Si](C)(C)C)=C2C=C(C)C3(CC3)C12C` (stereo unspecified): the TGI with NCI-H522 lung is 66.2 µM; in the assay on NCI-H23 lung it was more than 100 µM; in the assay with IGROV1 ovarian, more than 100 µM; in the assay on MDA-MB-435, 64.3 µM; in the assay with HCC-2998 colon, 70.2 µM; in the assay on HL-60(TB) leukemia it was 34.8 µM. The TGI was 60.5 µM with RXF 393 renal and more than 100 µM with HOP-62 NSCLC.

Consider `O=C(O)C(=C\c1ccc2c(c1)OCO2)/C(=C/c1ccc2c(c1)OCO2)C(=O)O`, for which the TGI with SK-OV-3 ovarian, with NCI-H23 lung, in the assay on IGROV1 ovarian, in the assay with MDA-MB-435, with HCC-2998 colon and in the assay on HL-60(TB) leukemia was more than 100 µM in each case. For the same compound, the TGI in the assay on RXF 393 renal, with SNB-75 CNS and with HOP-62 NSCLC was more than 100 µM each time.

On to `Cn1nc(Cc2ccc(Cl)cc2)n(N)c1=O`, for which the TGI with NCI-H23 lung, with IGROV1 ovarian, in the assay with MDA-MB-435, with HCC-2998 colon, in the assay with RXF 393 renal and in the assay with SNB-75 CNS was more than 100 µM in each case.

In the case of `CCOC(=O)c1nc2ccc(C(F)(F)F)cc2nc1NCc1ccc(Cl)c(Cl)c1`, the TGI in the assay with NCI-H522 lung is 33.5 µM; with SK-OV-3 ovarian, more than 100 µM; in the assay on NCI-H23 lung it was more than 100 µM; in the assay on IGROV1 ovarian, 55.4 µM; in the assay with MDA-MB-435, 56.7 µM; with HL-60(TB) leukemia it was more than 100 µM. Besides, the TGI in the assay on RXF 393 renal was 81.5 µM; with SNB-75 CNS, 51.3 µM; in the assay with HOP-62 NSCLC, 52.1 µM.

Take `O=C(O)c1c[nH]c2c(Sc3ccccc3)nccc2c1=O`: the TGI in the assay on NCI-H522 lung, in the assay on SK-OV-3 ovarian, in the assay with NCI-H23 lung, in the assay with IGROV1 ovarian, with MDA-MB-435 and with HL-60(TB) leukemia was more than 100 µM in each case. Besides, the TGI in the assay with SNB-75 CNS and in the assay on HOP-62 NSCLC was more than 100 µM throughout.

With `COC(=O)CNC(=O)C(C)NC(=O)C(CC(=O)OCc1ccccc1)NC(=O)OCc1ccccc1` (stereo not drawn) (Cbz-Asp(OBn)-Ala-Gly-OMe; configuration not given here), the TGI in the assay on NCI-H522 lung, in the assay with SK-OV-3 ovarian, with NCI-H23 lung, in the assay with IGROV1 ovarian, in the assay with MDA-MB-435 and with HCC-2998 colon was more than 100 µM each time. Besides, the results for the TGI with RXF 393 renal, with SNB-75 CNS and in the assay with HOP-62 NSCLC were 68.6 µM, more than 100 µM and more than 100 µM, respectively.

Consider `O=c1[nH]c(=O)n(C2OC(CO)C(O)C(F)C2O)cc1F` (stereo unspecified), for which the TGI in the assay on NCI-H522 lung, in the assay on SK-OV-3 ovarian, with NCI-H23 lung, with MDA-MB-435, with HCC-2998 colon and in the assay with HL-60(TB) leukemia was more than 100 µM each time.

In the case of `COc1cc2c(/C=C3/C(=O)Nc4ccc(Cl)cc43)c(Cl)n(Cc3ccccc3)c2cc1C`, the TGI stood at 4.41 µM with SK-OV-3 ovarian; 7.46 µM in the assay on NCI-H23 lung; 13.4 µM in the assay with IGROV1 ovarian; 6.21 µM with MDA-MB-435; 17.4 µM in the assay with HL-60(TB) leukemia; 5.18 µM in the assay on RXF 393 renal. The TGI in the assay on SNB-75 CNS is 4.61 µM.

For the compound `COc1ccc(-c2ccc(-c3ccc(C(=N)N)nc3)s2)cc1`, the GI50 was 1.7 µM in the assay with SK-OV-3 ovarian; 1.84 µM in the assay with NCI-H23 lung; 1.73 µM in the assay on MDA-MB-435; 1.82 µM in the assay with HCC-2998 colon; 1.77 µM with RXF 393 renal; 1.55 µM in the assay with SNB-75 CNS. Also, the TGI in the assay with SK-OV-3 ovarian was determined as 3.23 µM; in the assay on NCI-H23 lung it was 3.46 µM; in the assay with MDA-MB-435, 3.11 µM; with HCC-2998 colon, 3.41 µM; in the assay on RXF 393 renal it was 3.34 µM; in the assay with SNB-75 CNS it was 2.88 µM.

Consider `NC1CC(=O)c2cc(Cl)sc21` (stereo unspecified), for which the TGI in the assay on NCI-H522 lung, in the assay on SK-OV-3 ovarian, in the assay with NCI-H23 lung, in the assay on IGROV1 ovarian, in the assay with MDA-MB-435 and with HL-60(TB) leukemia was more than 100 µM throughout. The TGI in the assay with RXF 393 renal, in the assay on SNB-75 CNS and in the assay with HOP-62 NSCLC was more than 100 µM each time.

For `Cc1occc1C(=S)Nc1ccc(Cl)c(C(=O)OCC(F)(F)F)c1`, the TGI with NCI-H522 lung came to 45.5 µM; in the assay with SK-OV-3 ovarian, 51.2 µM; in the assay on NCI-H23 lung, 51.4 µM; with IGROV1 ovarian, 39.7 µM; in the assay on MDA-MB-435, 37.4 µM; with HCC-2998 colon, 35.1 µM. Besides, the TGI was found to be 65.6 µM in the assay on HL-60(TB) leukemia and 49.4 µM in the assay on SNB-75 CNS.

On to `COc1ccc(C2c3cc4c(cc3C(O)C3CCC(=O)N23)OCO4)cc1` (stereo unspecified), for which the TGI with NCI-H522 lung, in the assay on SK-OV-3 ovarian, with NCI-H23 lung, with IGROV1 ovarian, in the assay on MDA-MB-435 and in the assay on HCC-2998 colon was more than 100 µM each time. For the same compound, the TGI in the assay on HL-60(TB) leukemia, in the assay on SNB-75 CNS and in the assay on HOP-62 NSCLC was more than 100 µM in each case.

As for `NCCCNCCCNCCCN`, the TGI with NCI-H522 lung, in the assay with SK-OV-3 ovarian, in the assay on NCI-H23 lung, in the assay on IGROV1 ovarian, in the assay with MDA-MB-435 and with HCC-2998 colon was more than 100 µM in each case. Further, the TGI in the assay with HL-60(TB) leukemia, with RXF 393 renal and in the assay with HOP-62 NSCLC was more than 100 µM in each case.

In the case of `C[C@H]1[C@H](C)N(Cc2ccccc2)P(=O)(C(O)/C=C/c2ccccc2)N1Cc1ccccc1` (stereo partly specified), the TGI with NCI-H522 lung was more than 25 µM; in the assay on SK-OV-3 ovarian, more than 25 µM; in the assay with NCI-H23 lung, more than 25 µM; in the assay with IGROV1 ovarian, more than 25 µM; in the assay on MDA-MB-435, 8.79 µM; in the assay with HCC-2998 colon, 15.5 µM. The TGI with RXF 393 renal is 15.6 µM; in the assay on SNB-75 CNS, 17.9 µM; with HOP-62 NSCLC it was more than 25 µM.
